Measurements as given in patent US9187784B2, “EphA4 is a disease modifier in motor neuron disease” (VIB VZW, priority 2011, dated 2015).
Marks after values point to notes of the source that are not given here.

Test system: mutant SOD1-overexpressing fish
Experiment: mutant SOD1-induced motor axonopathy in zebrafish embryos (percentage affected embryos, motor axon length)
Format: in vivo
Text: FIG. 1: EphA4 knockdown rescues mutant SOD1-induced motor axonopathy. […] Abnormal branching is indicated with arrowhead. Y-axes show motor axon length of zebrafish embryos expressing wild-type SOD1 (black bar, Panels D-G) or mutant SOD1 (white bar, Panels D-G). Knockdown of RTK2 in SOD1A4V- (Panel D), SOD1G93A- (Panel E) and SOD1G37R- (Panel F) expressing fish was established by co-injection of increasing amounts of atg-RTK2 morpholino (shaded bars). RTK1 expression was inhibited in SOD1A4V-expressing fish by co-injection of atg-RTK1 morpholino (shaded bars, Panel G). Ctr-RTK2 and ctr-RTK1 were used as control. ANOVA and Bonferroni's multiple comparison tests were used for statistical analysis. Comparing axonal length in SOD1A4V fish injected with ctr-RTK2 (n=39) vs. different doses atg-RTK2: 3 ng (n=43, p=0.0059), 4.5 ng (n=37, p=0.0016, Panel D), SOD1G93A: ctr-RTK2 (n=60) vs. atg-RTK2: 1.5 ng (n=55, p=0.015), 3 ng (n=51, p=2.82×10-9), 4.5 ng (n=46, p=2.22×10-15, Panel E), SOD1G37R: ctr-RTK2 (n=37) vs. atg-RTK2: 3 ng (n=25, p=0.027), 4.5 ng (n=36, p=0.0018, Panel F) and SOD1A4V: ctr-RTK1 (n=49) vs. atg-RTK1: 1.5 ng (n=51, p=2.51×10-7), 3 ng (n=64, p=7.99×10-10), 4.5 ng (n=54, p<1×10-20, Panel G). Western blot of SOD1WT or SOD1A4V (1.76 ng) expressing zebrafish embryos (30 hpf), co-injected with either ctr-RTK1 or atg-RTK1 (4.5 ng). Sixty embryos were used per group with actin as the loading control (H). Immunostaining of rtk1 (green) in rhombomeres 3 and 5 and of ephrin-b2 (magenta) in rhombomere 4 in zebrafish embryos injected with either ctr-RTK1 or atg-RTK1 (4.5 ng). RTK1-depleted embryos show disorganized rhombomere boundaries (arrowhead, I, Scale bar 50 μm). Error bars are s.e.m.
FIG. 2: RTK2 knockdown protects motor axons against SOD1^A4V-induced injury. Effect of RTK2 knockdown, established by injection of splice-rtk2 morpholino, on the motor axon length of SOD1^A4V-expressing zebrafish embryos (30 hpf). SOD1^WT-expressing fish and a non-functional five-base pair-mismatch control morpholino (ctr-RTK2) were used as control (Panel A). ANOVA and Bonferroni's multiple comparison tests were used for statistical analysis: SOD1^A4V/ctr-RTK2 (n=56) vs. SOD1^A4V/spl-RTK2 (n=60, 1.79×10^−4). Spl-RTK2 was designed against the exon 2 splice site of the zebrafish RTK2 pre-mRNA and alternatively skipped out exon 2. RT-PCR on non-transgenic fish (lane 1), ctr-RTK2-injected fish (lane 2) and spl-RTK2-injected fish (lane 3) at 30 hpf. Functional RTK2 mRNA, containing exon 2, is indicated by the 818-bp product (upper band) while non-functional RTK2 mRNA, lacking exon 2 is indicated by the 156-bp product (lower band), 60 embryos each group (Panel B). Error bars are s.e.m.
FIG. 12: Pharmacological inhibition of EphA4 receptor signaling protects against mutant SOD1 pathology in vivo. Effect of treatment with Compound 1 (C1, 500 μM) on the motor axon length of zebrafish embryos (30 hpf). DMSO (1/250 dilution) was used as control (Panel A). ANOVA and Bonferroni's multiple comparison tests were used for statistical analysis: SOD1^A4V/C1 (n=68) vs. SOD1^A4V/DMSO (n=76, p=3.54×10^−5). Effect of KYL-peptide (3 mM) treatment of 60-day-old SOD1^G93A rats on disease onset (Panel B) and survival (Panel C). Artificial CSF (ACSF) was used as control. Average disease onset: 133 days (treated, n=21) versus 125 days (control, n=17, T-test p=0.044). Average survival: 148 days (treated, n=21) versus 139 days (controls, n=17, T-test p=0.041). Error bars are s.e.m.
Effect of RTK2 knockdown (established by injection of atg-RTK2 morpholino) on the percentage of affected wild-type SOD1 or mutant SOD1 (A4V, G93A, G37R) zebrafish embryos (30 hpf). Ctr-RTK2 morpholino was used as control. An embryo was considered as affected when it had more than 10% abnormally branched motor axons. Significance of mtSOD1/ctr-RTK2 (4.5 ng) vs. mtSOD1/atg-RTK2 (4.5 ng) was determined by Mann-Whitney test, * p=0.0075, ° p=0.039 and # p=0.0052. […]

| Compound | % affected fish (Table 4, SOD1A4V fish, morpholino 1.5 ng) | % affected fish (Table 4, SOD1A4V fish, morpholino 3 ng) | % affected fish (Table 4, SOD1A4V fish, morpholino 4.5 ng) | % affected fish (Table 4, SOD1WT fish, morpholino 4.5 ng) | % affected fish (Table 4, SOD1A4V fish, C1 500 μM in the water) | % affected fish (Table 4, SOD1WT fish, C1 500 μM in the water) |
| --- | --- | --- | --- | --- | --- | --- |
| 5′-CTGTGAACACAAGCGCAGCCATTGG-′3 (all phosphorodiamidate morpholino (PMO)) [atg-RTK1] | 38 (24) % | 22 (33) % | 8* (26) % | 14 (14) % | – | – |
| Cc1ccc(C)n1-c1ccc(C(=O)O)c(O)c1 [Compound C1] | – | – | – | – | 11° (26) % | 15 (32) % |
